Experimental data reported in patent publication US20140099662A1, “PHOTOTOXICITY TEST METHOD” (SUMITOMO CHEMICAL COMPANY, LIMITED, priority 2011, published 2014).
Converted amounts (≈) assume the structure as drawn. Read-outs that look alike come from different tables or passages of the source.

How the values were obtained:
[1] = test system: Balb/c 3T3 cells; test: in vitro
Experimental: (§1) “Balb/c 3T3 cells” are connective tissue cells and fibroblasts.
(§2) The “Balb/c 3T3 cells” cultured in DMEM medium supplemented with 10% bovine serum and L-glutamine were treated with 0.25% trypsin to collect the cells from a culture dish. The collected cells were seeded in a 96-well culture dish previously coated with a 0.1% gelatin solution at 10000 cells per well and then cultured in DMEM medium supplemented with 10% bovine serum and […] in an incubator at 37° C. and 5% CO2 overnight.
(§3) After the cultivation, the medium was removed from the 96-well culture dish using an aspirator and Earle's Balanced Salt Solution (EBSS) was then added to the 96-well culture dish at 150 μl per well to wash the cells.
(§4) After the 96-well culture dish was shaded by wrapping with aluminum foil, irradiation of the culture dish shaded with aluminum foil with light was carried out using a light irradiation device (a solar simulator SXL-2500V2: SERIC LTD.) for 40 minutes (the light irradiation dose is about 5 J/cm^2 by calculation based on irradiation strength at 360 nm). Immediately after light irradiation, the 96-well culture dish was washed twice with 150 μl of a DMEM/F12 culture liquid and a DMEM/F12 culture liquid supplemented with N2-supplement was then added to the 96-well culture dish at 100 μl per well, followed by cultivation overnight.
(§5) After the cultivation, the medium was removed from the 96-well culture dish and a previously prepared mixed solution of equal amounts of DMEM/F12 culture liquid and Cell titer Glo reaction liquid was then added to the 96-well culture dish at 100 μl per well.
(§6) The obtained 96-well culture dish was allowed to stand at room temperature for 30 minutes while shaking in a shaded state with aluminum foil and 95 μl of culture contained in the 96-well culture dish was then transferred to a white 96-well examining dish.
(§7) Next, the amount of luminescence of the culture contained in the 96-well examining dish (the amount of luminescence has a correlation with the cell survival rate) was measured by EnVision Multilabel Reader (PerkinElmer). The 50% inhibitory concentration (IC50) of a test substance to the human retinal pigment epithelial cells was calculated from the measured values and the calculated value was considered as a value showing cytotoxicity (an index value correlated therewith).
(§8) The “Balb/c 3T3 cells” cultured in DMEM medium supplemented with 10% bovine serum and L-glutamine were treated with 0.25% trypsin to collect the cells from a culture dish. The collected cells were seeded in a 96-well culture dish previously coated with a 0.1% gelatin solution at 10000 cells per well and then cultured in DMEM medium supplemented with 10% bovine serum and L-glutamine in an incubator at 37° C. and 5% CO2 overnight.
(§9) Unlike Comparative Example 1, light irradiation was carried out using a light irradiation device (a solar simulator SXL-2500V2: SERIC LTD.) for 40 minutes without wrapping the 96-well culture dish with aluminum foil (light irradiation dose is about 5 J/cm^2 by calculation based on light irradiation strength at 360 nm). Immediately after light irradiation, the 96-well culture dish was washed twice with 150 μl of a DMEM/F12 culture liquid and a DMEM/F12 culture liquid supplemented with N2-supplement was then added to the 96-well culture dish at 100 μl per well, followed by cultivation overnight.
as §6, with “dish. Next, the amount of luminescence of the culture contained in the 96-well examining dish (the amount of luminescence has a correlation with the cell survival rate) was measured by EnVision Multilabel Reader (PerkinElmer).” for “dish.”

[2] = test system: yeast-RBC; details: 4 facilities, validation study report Aug. 27, 2004; cited from earlier work
[3] = test system: human retinal pigment epithelial cells; test: in vitro
Experimental: (§10) The human retinal pigment epithelial cells prepared in Example 2 were treated with 0.25% trypsin to collect the cells from a culture dish. The collected cells were seeded in a 96-well culture dish previously coated with Matrigel at 100000 or 120000 cells per well and then cultured in an incubator at 37° C. and 5% CO2.
(§11) After the cultivation for 2 hours to 4 hours, the medium was removed from the 96-well culture dish using an aspirator and Earle's Balanced Salt Solution (EBSS) was then added to the 96-well culture dish at 150 μl per well to wash the cells.
as §4, with “minutes (light” for “minutes (the light”, “dose of” for “dose is”, “5 J/cm^2).” for “5 J/cm^2 by calculation based on irradiation strength at 360 nm).”
as §5
as §7, with “The obtained 96-well culture dish was allowed to stand at room temperature for 30 minutes while shaking in a shaded state with aluminum foil and 95 μl of culture contained in the 96-well culture dish was then transferred to a white 96-well examining dish. Next,” for “Next,”
(§12) Unlike Example 3, irradiation with light was carried out using a light irradiation device (a solar simulator SXL-2500V2: SERIC LTD.) for 40 minutes without wrapping the 96-well culture dish with aluminum foil (light irradiation dose is about 5 J/cm^2 by calculation based on light irradiation strength at 360 nm). Immediately after light irradiation, the 96-well culture dish was washed twice with 150 μl of a DMEM/F12 culture liquid and a DMEM/F12 culture liquid supplemented with N2-supplement was then added to the 96-well culture dish at 100 μl per well, followed by cultivation overnight.
(§13) The above-described PIF value (Photo Irritation Facor value) was obtained based on the 50% inhibitory concentration (IC50) calculated in Example 3 and Example 4 (that is, a value obtained by dividing the cytotoxicity IC50 value in human retinal pigment epithelial cells exposed to a test substance (a (shaded) control for non-light Irradiation) by the cytotoxicity IC50 value in human retinal pigment epithelial cells cultured under simulated solar light irradiation within 24 hours after the onset of exposure to the test substance). […] When the value (PIF value) was greater than 5, the test substance was evaluated as phototoxicity-positive.

[4] = in vitro; details: human, IC50 (50% inhibitory concentration, cytotoxicity)
Experimental: as §10, §11
as §4, with “minutes (light” for “minutes (the light”, “dose of” for “dose is”, “5 J/cm^2).” for “5 J/cm^2 by calculation based on irradiation strength at 360 nm).”
as §5
as §7, with “The obtained 96-well culture dish was allowed to stand at room temperature for 30 minutes while shaking in a shaded state with aluminum foil and 95 μl of culture contained in the 96-well culture dish was then transferred to a white 96-well examining dish. Next,” for “Next,”
as §12, §13

[5] = in vitro; details: mouse, IC50 (50% inhibitory concentration, cytotoxicity)
Experimental: as §1, §2, §3, §4, §5, §6, §7, §8, §9
as §6, with “dish. Next, the amount of luminescence of the culture contained in the 96-well examining dish (the amount of luminescence has a correlation with the cell survival rate) was measured by EnVision Multilabel Reader (PerkinElmer).” for “dish.”

[6] = test system: human retinal pigment epithelial cells
Experimental: The relationship between the light irradiation dose and the above-described PIF value (that is, a value obtained by dividing the cytotoxicity IC50 value in human retinal pigment epithelial cells exposed to a test substance (a (shaded) control for non-light irradiation) by the cytotoxicity IC50 value in human retinal pigment epithelial cells cultured under simulated solar light irradiation within 24 hours after the onset of contact with the test substance) was examined using chlorpromazine (CPZ) used as a positive control in the OECD guideline. Light irradiation was set to each condition of a light of 2.09 mW/cm^2 (measured with UVR300 manufactured by TOPCON CORPORATION equipped with photoreceiving part UD360) for 15 minutes (1.87 J/cm^2), 20 minutes (2.50 J/cm^2), 25 minutes (3.13 J/cm^2), 30 minutes (3.75 J/cm^2), 40 minutes (5.00 J/cm^2) and 60 minutes (7.51 J/cm^2), and the phototoxicity test method was carried out according to the methods described in Example 3 and Example 4. The phototoxicity test method in shaded conditions as a control for non-light irradiation was carried out in the same manner as in the phototoxicity test method under light irradiation except that light was blocked.
The number of viable cells of the human retinal pigment epithelial cells was checked for 15 minutes (1.87 J/cm^2), 20 minutes (2.50 J/cm^2), 25 minutes (3.13 J/cm^2), 30 minutes (3.75 J/cm^2), 40 minutes (5.00 J/cm^2) and 60 minutes (7.51 J/cm^2).

[7] = shaded (control for non-light irradiation)
[8] = shaded with aluminum foil (control for non-light irradiation), 40 minutes, then cultivation overnight
[9] = simulated solar light irradiation 40 minutes, about 5 J/cm^2
[10] = simulated solar light irradiation 40 minutes, about 5 J/cm^2 at 360 nm, then cultivation overnight

SMILES | photocytotoxicity determination by the comparative phototoxicity test method [1] | PIF value (Photo Irritation Facor value) = IC50 shaded / IC50 under light irradiation ([1]; mouse, 40 min) | result in the yeast-RBC assay [2] | photocytotoxicity determination by the phototoxicity test method of the present invention [3] | IC50 (50% inhibitory concentration, cytotoxicity) ([3]; human, 40 min) | IC50 at 40 min [4] | photocytotoxicity determination by the comparative phototoxicity test method ([1]; evaluation based on PIF value) | IC50 (50% inhibitory concentration, cytotoxicity) ([1]; mouse, 40 min) | photocytotoxicity determination by the phototoxicity test method of the present invention ([3]; evaluation based on PIF value) | PIF value (Photo Irritation Facor value) = IC50 shaded / IC50 under light irradiation ([3]; human, 40 min) | further results
Oc1c(Cl)cc(Cl)cc1Sc1cc(Cl)cc(Cl)c1O [Bithionol, bithionol] | photocytotoxicity-positive | 12.4 | false positive | photocytotoxicity-negative | > 10 µg/mL | > 10 µg/mL |  |  |  |  | concentration at or below which cytotoxicity was not observed ([3]; human, 40 min): ≤ 10 µg/mL
C=C[C@H]1C[N@@]2CC[C@H]1C[C@H]2[C@H](O)c1ccnc2ccc(OC)cc12 [Quinine, quinine] |  | 128.8 |  |  | 88.9 µg/mL (≈ 274 µM) | 147 µg/mL (≈ 453 µM) | photocytotoxicity-positive | 2.3 µg/mL (≈ 7.09 µM) | photocytotoxicity-negative | 1.7 | IC50 ([1]; mouse, 40 min): 292 µg/mL (≈ 901 µM)
[H]/N=C(\N/C(=N/[H])NCCCCCCNC(=N)NC(=N)Nc1ccc(Cl)cc1)Nc1ccc(Cl)cc1 [Chlorhexidine, chlorhexidine] | photocytotoxicity-negative | 1.4 | false positive | photocytotoxicity-negative | 43.7 µg/mL (≈ 86.5 µM) | 42.7 µg/mL (≈ 84.5 µM) |  | 10.1 µg/mL (≈ 20 µM) |  | 0.98 | IC50 at 40 min [5]: 13.7 µg/mL (≈ 27.1 µM)
CN(C)CCCN1c2ccccc2Sc2ccc(Cl)cc21 [Chlorpromazine (CPZ), chlorpromazine] | photocytotoxicity-positive | 23.7 |  | photocytotoxicity-positive |  |  |  |  |  | 6.5 | PIF ([6]; 15 min): 1.70; PIF ([6]; 20 min): 1.72; PIF ([6]; 25 min): 3.35; light irradiation dose by which the number of viable cells under light irradiation significantly decreases relative to light blocked conditions ([6]; 25 min, 10 μg/ml): ≥ 3.13 J/cm^2; PIF ([6]; 30 min): 4.57; PIF ([6]; 40 min): 6.53; PIF ([6]; 60 min): 10.94
CC1(C)S[C@@H]2[C@H](NC(=O)Cc3ccccc3)C(=O)N2[C@H]1C(=O)O [Penicillin G, penicillin G] |  |  |  |  |  |  | photocytotoxicity-negative |  | photocytotoxicity-negative |  | PIF value (Photo Irritation Facor value) = IC50 shaded / IC50 under light irradiation ([1]; from Comparative Example 1 and Comparative Example 2, greater than 5 = phototoxicity-positive): Photocytotoxicity is not Confirmed; concentration at or below which cytotoxicity was not observed [1, 7]: ≤ 1000 µg/mL; IC50 (50% inhibitory concentration, cytotoxicity) [1, 8]: > 1000 µg/mL; concentration at or below which cytotoxicity was not observed [1, 9]: ≤ 1000 µg/mL; IC50 (50% inhibitory concentration, cytotoxicity) [1, 10]: > 1000 µg/mL; PIF value (Photo Irritation Facor value) = IC50 shaded / IC50 under light irradiation ([3]; from Example 3 and Example 4, greater than 5 = phototoxicity-positive): Photocytotoxicity is not Confirmed; concentration at or below which cytotoxicity was not observed [3, 7]: ≤ 1000 µg/mL; IC50 (50% inhibitory concentration, cytotoxicity) [3, 8]: > 1000 µg/mL; concentration at or below which cytotoxicity was not observed [3, 9]: ≤ 1000 µg/mL; IC50 (50% inhibitory concentration, cytotoxicity) [3, 10]: > 1000 µg/mL
